In the NIST ThermoML archive (doi:10.1016/j.fluid.2007.09.028):

Assay: xn = mol fraction of the nth substance listed
Details: 101 kPa, Liquid

Clc1ccccc1 [chlorobenzene] + CCC(C)O
mass density [kg/m3]
Details | 288.15 K | 293.15 K | 298.15 K | 303.15 K | 308.15 K | 313.15 K
x2 = 0 | 1111.81 | 1106.43 | 1101.04 | 1095.64 | 1090.23 | 1084.82
x2 = 0.0496 | 1097.45 | 1092.02 | 1086.59 | 1081.16 | 1075.72 | 1070.28
x2 = 0.1003 | 1083.13 | 1077.7 | 1072.25 | 1066.79 | 1061.32 | 1055.83
x2 = 0.1501 | 1069.16 | 1063.74 | 1058.31 | 1052.85 | 1047.37 | 1041.88
x2 = 0.2 | 1055.05 | 1049.66 | 1044.24 | 1038.8 | 1033.33 | 1027.86
x2 = 0.2502 | 1040.78 | 1035.43 | 1030.05 | 1024.63 | 1019.19 | 1013.73
x2 = 0.3007 | 1026.39 | 1021.07 | 1015.73 | 1010.35 | 1004.94 | 999.501
x2 = 0.3497 | 1012.26 | 1006.99 | 1001.69 | 996.346 | 990.966 | 985.56
x2 = 0.3999 | 997.723 | 992.501 | 987.245 | 981.952 | 976.612 | 971.251
x2 = 0.4499 | 983.091 | 977.922 | 972.717 | 967.468 | 962.174 | 956.834
x2 = 0.5 | 968.364 | 963.258 | 958.109 | 952.917 | 947.675 | 942.399
x2 = 0.5498 | 953.525 | 948.484 | 943.398 | 938.263 | 933.079 | 927.858
x2 = 0.5999 | 938.418 | 933.448 | 928.431 | 923.362 | 918.237 | 913.072
x2 = 0.6499 | 923.235 | 918.341 | 913.397 | 908.397 | 903.335 | 898.213
x2 = 0.7 | 907.848 | 903.04 | 898.18 | 893.259 | 888.276 | 883.238
x2 = 0.75 | 892.266 | 887.557 | 882.791 | 877.959 | 873.061 | 868.109
x2 = 0.8 | 876.537 | 871.933 | 867.265 | 862.532 | 857.722 | 852.839
x2 = 0.8498 | 860.576 | 856.092 | 851.542 | 846.918 | 842.221 | 837.46
x2 = 0.8997 | 844.324 | 839.965 | 835.544 | 831.044 | 826.464 | 821.827
x2 = 0.9502 | 827.634 | 823.427 | 819.146 | 814.788 | 810.337 | 805.821
